# Test results taken from patent US6355799B1, “Substituted benzene compounds, process for their preparation, and herbicidal and defoliant compositions containing them” (ISK Americas Incorporated, priority 1997, dated 2002).
# What was measured:
# Assay type in all cases: in vivo
# [1] = tested on: field corn (Zea mays L., var. Dekalb 535, CORN); assay: Post-emerge test, crop safety; settings: post-emerge, 14 days after application, rating scale 0-100
# How it was run: (§1)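 Compounds in acetone were track-sprayed at 187 l/ha, 15–1000 g ai/ha, onto sandy loam pots. Pre-emerge seeds were sown one day before spraying, with surface watering afterwards. Post-emerge plants were at the 2–3 leaf stage and sprayed with 0.25% v/v non-ionic surfactant. Injury was rated 0–100 at 14 days.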
# [2] = tested on: upland rice (Oryza sp., var. Tebonnet, RICE); assay: Post-emerge test, crop safety; settings: post-emerge, 14 days after application, rating scale 0-100
# How it was run: as §1
# [3] = tested on: field corn (Zea mays L., var. Dekalb 535, CORN); assay: Pre-emerge test, crop safety; settings: crop damage rating 0-100, 14 days after application
# How it was run: (§2)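 Fourteen days after spraying, crop and weed injury was graded visually from 0, no effect, to 100, every plant dead. Test substances were dissolved in acetone and applied at 15–1000 g ai/ha with a flat-fan nozzle. Application was either pre-emergence, one day after sowing, or post-emergence at the 2–3 leaf stage.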
# [4] = tested on: upland rice (Oryza sp., var. Tebonnet, RICE); assay: Pre-emerge test, crop safety; settings: crop damage rating 0-100, 14 days after application
# How it was run: as §2
# [5] = tested on: sicklepod (Cassia obtusifolia, CASOB); assay: Pre-emerge test, greenhouse herbicide activity screening; settings: phytotoxicity rating 0-100, 14 days after application
# How it was run: as §1
# [6] = tested on: green foxtail (Setaria viridis, SETVI); assay: as above; settings: phytotoxicity rating 0-100, 14 days after application
# How it was run: as §1
# [7] = tested on: barnyardgrass (Echinochloa crus-galli, ECHCG); assay: as above; settings: phytotoxicity rating 0-100, 14 days after application
# How it was run: as §1
# [8] = tested on: common ragweed (Ambrosia artemisizfolia L., AMBEL); assay: as above; settings: phytotoxicity rating 0-100, 14 days after application
# How it was run: as §1
# [9] = tested on: johnsongrass (Sorghum halepense, SORHA); assay: as above; settings: phytotoxicity rating 0-100, 14 days after application
# How it was run: as §1
# [10] = tested on: velvetleaf (Abutilon theophrasti, ABUTH); assay: as above; settings: phytotoxicity rating 0-100, 14 days after application
# How it was run: as §1
# [11] = tested on: lambsquarters (Chenopodium album, CHEAL); assay: as above; settings: phytotoxicity rating 0-100, 14 days after application
# How it was run: as §1
# [12] = tested on: ivyleaf morningglory (Ipomoea hederacea, IPOHE); assay: as above; settings: phytotoxicity rating 0-100, 14 days after application
# How it was run: as §1
# [13] = tested on: large crabgrass (Digitaria sanguinalis, DIGSA); assay: as above; settings: phytotoxicity rating 0-100, 14 days after application
# How it was run: as §1
# [14] = tested on: sicklepod (Cassia obtusifolia, CASOB); assay: Post-emerge test, greenhouse herbicide activity screening; settings: post-emerge, 63 g ai/ha, 14 days after application, rating scale 0-100
# How it was run: (§3)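 Compounds in acetone were track-sprayed at 15-1000 g ai/ha (187 l/ha) on sandy loam pots: pre-emerge one day after seeding, post-emerge at 2-3 leaf stage with 0.25% v/v non-ionic surfactant. Phytotoxicity was rated 14 days later on a 0 (no damage) to 100 (complete death) scale.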
# [15] = tested on: green foxtail (Setaria viridis, SETVI); assay: as above; settings: post-emerge, 14 days after application, rating scale 0-100
# How it was run: as §3
# [16] = tested on: barnyardgrass (Echinochloa crus-galli, ECHCG); assay: as above; settings: post-emerge, 14 days after application, rating scale 0-100
# How it was run: as §3
# [17] = tested on: common ragweed (Ambrosia artemisizfolia L., AMBEL); assay: as above; settings: post-emerge, 14 days after application, rating scale 0-100
# How it was run: as §3
# [18] = tested on: johnsongrass (Sorghum halepense, SORHA); assay: as above; settings: post-emerge, 14 days after application, rating scale 0-100
# How it was run: as §3
# [19] = tested on: redroot pigweed (Amaranthus retroflexus, AMARE); assay: as above; settings: post-emerge, 14 days after application
# How it was run: as §3
# [20] = tested on: velvetleaf (Abutilon theophrasti, ABUTH); assay: as above; settings: post-emerge, 14 days after application, rating scale 0-100
# How it was run: as §3
# [21] = tested on: lambsquarters (Chenopodium album, CHEAL); assay: as above; settings: post-emerge, 14 days after application, rating scale 0-100
# How it was run: as §3
# [22] = tested on: ivyleaf morningglory (Ipomoea hederacea, IPOHE); assay: as above; settings: post-emerge, 14 days after application, rating scale 0-100
# How it was run: as §3
# [23] = tested on: large crabgrass (Digitaria sanguinalis, DIGSA); assay: as above; settings: post-emerge, 14 days after application, rating scale 0-100
# How it was run: as §3
# [24] = tested on: redroot pigweed (Amaranthus retroflexus, AMARE); assay: Pre-emerge test, greenhouse herbicide activity screening; settings: phytotoxicity rating 0-100, 14 days after application
# How it was run: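 Plants grown in 10 cm pots of sandy loam mix received acetone-dissolved compounds through a moving flat-fan nozzle. Doses ranged from 15 to 1000 g ai/ha. Pre-emerge pots were seeded one day earlier, post-emerge pots 8–21 days earlier. Fourteen days on, each pot was graded 0–100 for damage.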
smiles,measurement,setting,value
Cn1c(C(F)(F)F)cc(=O)n(-c2ccc(Cl)cc2NC(=O)C2CC2)c1=O [2-204],phytotoxicity rating CORN (crop damage),[1]; 63 g ai/ha,5
same,phytotoxicity rating CORN (crop damage),[1]; 250 g ai/ha,10
same,phytotoxicity rating RICE (crop damage),[2]; 63 g ai/ha,0
same,phytotoxicity rating RICE (crop damage),[2]; 250 g ai/ha,30
same,Pre-emerge Herbicidal Activity CORN,[3]; 63 g ai/ha,50
same,Pre-emerge Herbicidal Activity CORN,[3]; 250 g ai/ha,70
same,Pre-emerge Herbicidal Activity RICE,[4]; 63 g ai/ha,0
same,Pre-emerge Herbicidal Activity RICE,[4]; 250 g ai/ha,30
same,Pre-emerge Herbicidal Activity CASOB,[5]; 63 g ai/ha,60
same,Pre-emerge Herbicidal Activity CASOB,[5]; 250 g ai/ha,75
same,Pre-emerge Herbicidal Activity SETVI,[6]; 63 g ai/ha,95
same,Pre-emerge Herbicidal Activity SETVI,[6]; 250 g ai/ha,99
same,Pre-emerge Herbicidal Activity ECHCG,[7]; 63 g ai/ha,20
same,Pre-emerge Herbicidal Activity ECHCG,[7]; 250 g ai/ha,70
same,Pre-emerge Herbicidal Activity AMBEL,[8]; 63 g ai/ha,50
same,Pre-emerge Herbicidal Activity AMBEL,[8]; 250 g ai/ha,85
same,Pre-emerge Herbicidal Activity SORHA,[9]; 63 g ai/ha,40
same,Pre-emerge Herbicidal Activity SORHA,[9]; 250 g ai/ha,80
same,Pre-emerge Herbicidal Activity ABUTH,[10]; 63 g ai/ha,99
same,Pre-emerge Herbicidal Activity ABUTH,[10]; 250 g ai/ha,100
same,Pre-emerge Herbicidal Activity CHEAL,[11]; 63 g ai/ha,70
same,Pre-emerge Herbicidal Activity CHEAL,[11]; 250 g ai/ha,100
same,Pre-emerge Herbicidal Activity IPOHE,[12]; 63 g ai/ha,50
same,Pre-emerge Herbicidal Activity IPOHE,[12]; 250 g ai/ha,100
same,Pre-emerge Herbicidal Activity DIGSA,[13]; 63 g ai/ha,35
same,Pre-emerge Herbicidal Activity DIGSA,[13]; 250 g ai/ha,100
same,phytotoxicity rating CASOB,[14],10
same,phytotoxicity rating SETVI,[15]; 63 g ai/ha,0
same,phytotoxicity rating SETVI,[15]; 250 g ai/ha,20
same,phytotoxicity rating ECHCG,[16]; 63 g ai/ha,0
same,phytotoxicity rating ECHCG,[16]; 250 g ai/ha,0
same,phytotoxicity rating AMBEL,[17]; 63 g ai/ha,10
same,phytotoxicity rating AMBEL,[17]; 250 g ai/ha,70
same,phytotoxicity rating SORHA,[18]; 63 g ai/ha,0
same,phytotoxicity rating SORHA,[18]; 250 g ai/ha,0
same,phytotoxicity rating AMARE,"[19]; 63 g ai/ha, rating scale 0-100 (0 no damage, 100 complete death)",50
same,phytotoxicity rating AMARE,"[19]; 250 g ai/ha, rating scale 0-100",70
same,phytotoxicity rating ABUTH,[20]; 63 g ai/ha,40
same,phytotoxicity rating ABUTH,[20]; 250 g ai/ha,80
same,phytotoxicity rating CHEAL,[21]; 63 g ai/ha,20
same,phytotoxicity rating CHEAL,[21]; 250 g ai/ha,95
same,phytotoxicity rating IPOHE,[22]; 63 g ai/ha,30
same,phytotoxicity rating IPOHE,[22]; 250 g ai/ha,60
same,phytotoxicity rating DIGSA,[23]; 63 g ai/ha,0
same,phytotoxicity rating DIGSA,[23]; 250 g ai/ha,10
same,Pre-emerge Herbicidal Activity AMARE,[24]; 63 g ai/ha,100
same,Pre-emerge Herbicidal Activity AMARE,[24]; 250 g ai/ha,100
